Experimental data as given in patent US8012975B2, “Antitumoral analogs of ET-743” (Pharma Mar, S.A., priority 2000, dated 2011).
Where two headings read alike, the source gives them in different places.

Legend:
P-388 [1] = test: Cytotoxic activity IC50, P-388; details: Mus musculus, P388, read-out: CYTOTOXIC ACTIVITIY IC50 (μM) P-388
in vitro = details: African green monkey
MEL-28 [2] = test: Cytotoxic activity IC50, MEL-28; details: Homo sapiens, SK-MEL-28, read-out: CYTOTOXIC ACTIVITIY IC50 (μM) MEL-28, MEL-28
A-549 [3] = test: Cytotoxic activity IC50, A-549; details: Homo sapiens, A549, read-out: CYTOTOXIC ACTIVITIY IC50 (μM) A-549, A-549
HT-29 [4] = test: Cytotoxic activity IC50, HT-29; details: Homo sapiens, HT-29, read-out: CYTOTOXIC ACTIVITIY IC50 (μM) HT-29, HT-29
DU-145 [5] = test: Cytotoxic activity IC50, DU-145; details: Homo sapiens, DU-145, read-out: CYTOTOXIC ACTIVITIY IC50 (μM) DU-145, DU-145
MC116 = test: Cytotoxic activity (M) panel, Lymphoma undifferentiated MC116; details: Homo sapiens, MC116, read-out: CYTOTOXIC ACTIVITY (M) MC116, leukemias & lymphomas, Lymphoma undifferentiated, line MC116
U-937 = test: Cytotoxic activity (M) panel, Lymphoma Histiocytic U-937; details: Homo sapiens, U-937, read-out: CYTOTOXIC ACTIVITY (M) U-937
Hut 78 = test: Cytotoxic activity (M) panel, Lymphoma Cutaneus T cell Hut 78; details: Homo sapiens, HuT78, read-out: CYTOTOXIC ACTIVITY (M) Hut 78, leukemias & lymphomas, Lymphoma Cutaneus T cell, line Hut 78
Molt 3 = test: Cytotoxic activity (M) panel, Acute lymphoblastic Molt 3; details: Homo sapiens, MOLT-3, read-out: CYTOTOXIC ACTIVITY (M) Molt 3, leukemias & lymphomas, ALL Acute lymphoblastic, line Molt 3
MEL-28 [6] = system: MEL-28
A-549 [7] = system: A-549
HT-29 [8] = system: HT-29
DU-145 [9] = system: DU-145
P-388 [10] = system: P-388

| Compound | IC50 (P-388 [1]) | IC50 (in vitro) | IC50 (MEL-28 [2]) | IC50 (A-549 [3]) | IC50 (HT-29 [4]) | also measured |
| --- | --- | --- | --- | --- | --- | --- |
| C=CCOc1c(C)c2c(c3c1CC1[C@H]4c5c(cc(C)c(OC)c5O)C[C@@H]([C@H](C#N)N1[C@H]3CNC(=O)OCC(Cl)(Cl)Cl)N4C)OCO2 (stereo partly shown) | 0.014 µM | 14 nM | 0.014 µM | 0.014 µM | 0.014 µM | – |
| COC1=C(C)C(=O)C2=C(C1=O)[C@H](CNC(=O)[C@H](C)NC(=O)C(F)(F)F)N1C(C2)[C@H]2c3c(cc(C)c(OC)c3O)C[C@@H]([C@@H]1C#N)N2C (stereo partly shown) | 0.01 µM | 100 nM | 0.01 µM | 0.01 µM | 0.01 µM | IC50 (DU-145 [5]): 0.01 µM |
| COc1c(C)cc2c(c1O)[C@@H]1C3Cc4c(OC(C)=O)c(C)c5c(c4[C@H](CNC(=O)/C=C/c4ccccc4)N3[C@@H](O)[C@H](C2)N1C)OCO5 (stereo partly shown) [drawing 220] | – | – | – | – | – | IC50 (MC116): 3.8e-09 M; IC50 (U-937): 3.28e-11 M; IC50 (Hut 78): 4.62e-09 M; IC50 (Molt 3): 5.66e-10 M |
| COc1c(C)cc2c(c1O)[C@@H]1C3Cc4c(OC(C)=O)c(C)c5c(c4[C@H](CNC(=O)[C@H](C)NC(=O)C(F)(F)F)N3[C@@H](O)[C@H](C2)N1C)OCO5 (stereo partly shown) [drawing 219] | – | – | – | – | – | IC50 (MC116): 2.65e-10 M; IC50 (U-937): 5.27e-11 M; IC50 (Hut 78): 2.57e-10 M; IC50 (Molt 3): 2.8e-09 M |
| COCOc1c(OC)c(C)cc2c1[C@@H]1C3CC4=C(C(=O)C(OC)=C(C)C4=O)[C@H](CNC(C)=O)N3[C@@H](C#N)[C@H](C2)N1C (stereo partly shown) | 0.22 µM | 220 nM | 0.22 µM | 0.22 µM | 0.22 µM | – |
| CCCCCC(=O)N[C@@H](C)C(=O)NC[C@H]1c2c(c(OC(C)=O)c(C)c3c2OCO3)CC2[C@H]3c4c(cc(C)c(OC)c4O)C[C@@H]([C@H](C#N)N21)N3C (stereo partly shown) | 0.001 µM | 1 nM | 0.001 µM | 0.001 µM | 0.001 µM | IC50 (DU-145 [5]): 0.001 µM |
| CCCCCC(=O)NC[C@H]1c2c(c(OC(C)=O)c(C)c3c2OCO3)CC2[C@H]3c4c(cc(C)c(OC)c4O)C[C@@H]([C@H](C#N)N21)N3C (stereo partly shown) [drawing 120] | – | 0.1 nM | – | – | – | IC50 (MEL-28 [6]): 0.1 nM; IC50 (A-549 [7]): 0.1 nM; IC50 (HT-29 [8]): 0.1 nM; IC50 (DU-145 [9]): 0.1 nM; IC50 (P-388 [10]): 0.1 nM |
| C=CCOc1c(C)c2c(c3c1CC1[C@H]4c5c(cc(C)c(OC)c5OCOC)C[C@@H]([C@H](C#N)N1[C@H]3CNC(=O)OCC(Cl)(Cl)Cl)N4C)OCO2 (stereo partly shown) | 0.13 µM | 130 nM | 0.13 µM | 0.13 µM | 0.13 µM | – |
| COC1=C(C)C(=O)C2=C3C1=NCC3N1C(C2)[C@H]2c3c(cc(C)c(OC)c3O)C[C@@H]([C@@H]1C#N)N2C (stereo partly shown) | 2.17 µM | 2170 nM | 2.17 µM | 2.17 µM | 2.17 µM | – |
